# Source: patent publication US20250163104A1, “MACROCYCLIC IMMUNOMODULATORS” (priority 2021, published 2025)
# Where a SMILES comes first, the peptide text is derived from it. Bridges are numbered along the chain shown (N, C = ends). [ ]: non-standard residue; d: D form. The star is where a group is joined. ξ: configuration not given here. Phe(4-CH2CH2COOH) = N[C@@H](Cc1ccc(CCC(=O)O)cc1)C(=O)O; Phe(4-CONH2) = NC(=O)c1ccc(C[C@H](N)C(=O)O)cc1; Phe(4-COOH) = N[C@@H](Cc1ccc(C(=O)O)cc1)C(=O)O; Bip = N[C@@H](Cc1ccc(-c2ccccc2)cc1)C(=O)O; Phe(3-Me) = Cc1cccc(C[C@H](N)C(=O)O)c1; Val(3-OH) = CC(C)(O)[C@H](N)C(=O)O; aIle = CC[C@@H](C)[C@H](N)C(=O)O; 4Pal = N[C@@H](Cc1ccncc1)C(=O)O; Cha = N[C@@H](CC1CCCCC1)C(=O)O; Cit = NC(=O)NCCC[C@H](N)C(=O)O; Ile(3ξ) = CCC(C)[C@H](N)C(=O)O; dCha = N[C@H](CC1CCCCC1)C(=O)O; hSer = N[C@@H](CCO)C(=O)O; Carboxymethyl = O=C(O)C*; NMeAib = CNC(C)(C)C(=O)O; Nle = CCCC[C@H](N)C(=O)O; Orn = NCCC[C@H](N)C(=O)O; Dab = NCC[C@H](N)C(=O)O; Dap = NC[C@H](N)C(=O)O
# Biological target: T1, human PD-1 / PD-L1-Ig binding on Jurkat cell line over-expressing human PD-1 (Jurkat-PD-1) (Homo sapiens, UniProt Q15116)
# T1 construct: expressed in transfected cells; host or cells: Jurkat
# T1 sequence (Q15116 25-288): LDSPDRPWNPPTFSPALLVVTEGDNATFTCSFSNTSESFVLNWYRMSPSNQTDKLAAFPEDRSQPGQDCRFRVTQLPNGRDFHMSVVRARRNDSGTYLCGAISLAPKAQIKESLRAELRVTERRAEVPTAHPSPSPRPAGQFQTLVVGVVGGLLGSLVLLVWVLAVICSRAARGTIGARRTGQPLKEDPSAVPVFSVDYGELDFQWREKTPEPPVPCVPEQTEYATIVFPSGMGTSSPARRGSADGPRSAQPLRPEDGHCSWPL
# Experiment: Jurkat-PD-1 Cell Binding High-Content Screening Assay (CBA)
# Format: cell-based
# Conditions: Jurkat-PD-1 cells, PE-labeled PD-L1-Ig 20 nM final; read-out: Jurkat HPD1_PDL1 IC50
# Outline: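 Jurkat cells over-expressing human PD-1, in DMEM/10% FCS, pre-incubated with compound 2 h at 37° C. PE-labeled human PD-L1-Ig (20 nM final) added for 1 h; cells fixed in paraformaldehyde with Hoechst 33342 nuclear stain, washed, and bound fluorescence quantified by high-content imaging.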
row,Structure (SMILES),IC50 [nM]
1,CC(C)C[C@H]1NC(=O)[C@H](CCCN)NC(=O)[C@H](CCC(=O)O)NC(=O)[C@H](Cc2ccc(-c3ccccc3)cc2)NC(=O)[C@H](C(C)C)NC(=O)[C@H](Cc2c[nH]c3ccccc23)NC(=O)[C@H](CCO)NC(=O)[C@H](Cc2ccc(OCC(=O)O)cc2)NC(=O)[C@H](CN)NC(=O)CSC[C@@H](C(=O)N[C@@H](C)C(N)=O)NC(=O)[C@H]([C@@H](C)O)NC(=O)[C@H](C(C)C)NC(=O)[C@H](CC2CCCCC2)NC(=O)[C@H](CCN)NC1=O [Compound 1499] ({CH2CO}-[Dap]Y(Carboxymethyl)[hSer]WV[Bip]E[Orn][dL][Dab][Cha]VTCA-NH2; thioether N-14),663
2,CC[C@@H](C)[C@@H]1NC(=O)[C@H](Cc2ccc(-c3ccccc3)cc2)NC(=O)[C@H](C(C)C)NC(=O)[C@H](Cc2c[nH]c3ccccc23)NC(=O)[C@H](CC(=O)O)NC(=O)[C@H](Cc2ccc(OCC(=O)O)cc2)NC(=O)[C@H](Cc2ccncc2)NC(=O)CSC[C@@H](C(=O)N[C@@H](C)C(N)=O)NC(=O)[C@H]([C@@H](C)O)NC(=O)[C@H](C(C)C)NC(=O)[C@H](CC2CCCCC2)NC(=O)[C@H](CCN)NC(=O)[C@@H](CC2CCCCC2)NC(=O)[C@H](CCCN)NC1=O [Compound 1628] ({CH2CO}-[4Pal]Y(Carboxymethyl)DWV[Bip][aIle][Orn][dCha][Dab][Cha]VTCA-NH2; thioether N-14),24.9
3,CC(C)C[C@H]1NC(=O)[C@H](CCCN)NC(=O)[C@H](CCCCN)NC(=O)[C@H](Cc2ccc(-c3ccccc3)cc2)NC(=O)[C@H](C(C)C)NC(=O)[C@H](Cc2c[nH]c3ccccc23)NC(=O)[C@H](CC(=O)O)NC(=O)[C@H](Cc2ccncc2)NC(=O)[C@H](CN)NC(=O)CSC[C@@H](C(=O)N[C@@H](CCCN)C(N)=O)NC(=O)[C@H](CCCN)NC(=O)[C@H](C(C)C)NC(=O)[C@H](CC2CCCCC2)NC(=O)[C@H](CCN)NC1=O [Compound 2253] ({CH2CO}-[Dap][4Pal]DWV[Bip]K[Orn][dL][Dab][Cha]V[Orn]C[Orn]-NH2; thioether N-14),138
4,CC(C)C[C@H]1NC(=O)[C@H](CCCN)NC(=O)[C@H](CCCNC(N)=O)NC(=O)[C@H](Cc2ccc(-c3ccccc3)cc2)NC(=O)[C@H](C(C)C)NC(=O)[C@H](Cc2c[nH]c3ccccc23)NC(=O)[C@H](CC(=O)O)NC(=O)[C@H](Cc2ccc(C(=O)O)cc2)NC(=O)[C@H](Cc2ccc(OCC(=O)O)cc2)NC(=O)CSC[C@@H](C(=O)N[C@@H](C)C(N)=O)NC(=O)[C@H]([C@@H](C)O)NC(=O)[C@H](C(C)C)NC(=O)[C@H](Cc2ccc(O)cc2)NC(=O)[C@H](CCN)NC1=O [Compound 1684] ({CH2CO}-Y(Carboxymethyl)[Phe(4-COOH)]DWV[Bip][Cit][Orn][dL][Dab]YVTCA-NH2; thioether N-14),120
5,Cc1cccc(C[C@@H]2NC(=O)[C@H](CC(=O)O)NC(=O)[C@H](Cc3ccc(C(=O)O)cc3)NC(=O)C(C)(C)N(C)C(=O)CSC[C@@H](C(=O)N[C@@H](CCN)C(N)=O)NC(=O)[C@H](CCC(=O)O)NC(=O)[C@H](C(C)(C)O)NC(=O)[C@H](CC3CCCCC3)NC(=O)[C@H](CCN)NC(=O)[C@@H](CC(C)C)NC(=O)[C@H](CCCN)NC(=O)[C@H](Cc3ccc(OCC(=O)O)cc3)NC(=O)[C@H](Cc3ccc(-c4ccccc4)cc3)NC(=O)[C@H](Cc3ccc(OCC(=O)O)cc3)NC2=O)c1 [Compound 2689] ({CH2CO}-[NMeAib][Phe(4-COOH)]D[Phe(3-Me)]Y(Carboxymethyl)[Bip]Y(Carboxymethyl)[Orn][dL][Dab][Cha][Val(3-OH)]EC[Dab]-NH2; thioether N-14),411
6,CCC(C)[C@@H]1NC(=O)[C@H](Cc2ccc(-c3ccccc3)cc2)NC(=O)[C@H](C(C)C)NC(=O)[C@H](Cc2cccc(C)c2)NC(=O)[C@H](CC(=O)O)NC(=O)[C@H](Cc2ccc(C(=O)O)cc2)NC(=O)[C@H](Cc2ccncc2)NC(=O)CSC[C@@H](C(N)=O)NC(=O)[C@H](CCCN)NC(=O)[C@H](C(C)C)NC(=O)[C@H](CC2CCCCC2)NC(=O)[C@H](CCN)NC(=O)[C@@H](CC(C)C)NC(=O)[C@H](CCCN)NC1=O (stereo partly drawn) [Compound 2273] ({CH2CO}-[4Pal][Phe(4-COOH)]D[Phe(3-Me)]V[Bip][Ile(3ξ)][Orn][dL][Dab][Cha]V[Orn]C-NH2; thioether N-14),26.6
7,CC(C)C[C@H]1NC(=O)[C@H](CCCN)NC(=O)[C@H](CN)NC(=O)[C@H](Cc2ccc(-c3ccccc3)cc2)NC(=O)[C@H](C(C)C)NC(=O)[C@H](Cc2c[nH]c3ccccc23)NC(=O)[C@H](CC(=O)O)NC(=O)[C@H](Cc2ccc(OCC(=O)O)cc2)NC(=O)[C@H](CC#N)NC(=O)CSC[C@@H](C(=O)N[C@@H](C)C(N)=O)NC(=O)[C@H](C(C)O)NC(=O)[C@H](C(C)C)NC(=O)[C@H](CC2CCCCC2)NC(=O)[C@H](CC(N)=O)NC1=O (some centres unmarked) [Compound 2539],103

# Stronger by IC50, values ahead:
row,IC50 [nM],Structure (SMILES)
1,18.7,CC(C)C[C@H]1NC(=O)[C@H](CCCN)NC(=O)[C@H](CCCNC(N)=O)NC(=O)[C@H](Cc2ccc(-c3ccccc3)cc2)NC(=O)[C@H](C(C)C)NC(=O)[C@H](Cc2c[nH]c3ccccc23)NC(=O)[C@H](CC(=O)O)NC(=O)[C@H](Cc2ccc3ccncc3c2)NC(=O)[C@H](CN)NC(=O)CSC[C@@H](C(=O)N[C@@H](C)C(N)=O)NC(=O)[C@H]([C@@H](C)O)NC(=O)[C@H](C(C)C)NC(=O)[C@H](CC2CCCCC2)NC(=O)[C@H](CCN)NC1=O [Compound 2117]
2,6.3,COCC[C@@H]1NC(=O)CSC[C@@H](C(=O)N[C@@H](CCN)C(N)=O)NC(=O)[C@H](CO)NC(=O)[C@H](C(C)(C)O)NC(=O)[C@H](CC2CCCCC2)NC(=O)[C@H](CCN)NC(=O)[C@@H](CC(C)C)NC(=O)[C@H](CCCN)NC(=O)[C@H](Cc2ccc(OCC(=O)O)cc2)NC(=O)[C@H](Cc2ccc(-c3ccccc3)cc2)NC(=O)[C@H](Cc2ccc(OCC(=O)O)cc2)NC(=O)[C@H](Cc2cccc(C)c2)NC(=O)[C@H](CC(=O)O)NC(=O)[C@H](Cc2ccc(C(=O)O)cc2)NC1=O [Compound 2079] ({CH2CO}-[hSer](Me)[Phe(4-COOH)]D[Phe(3-Me)]Y(Carboxymethyl)[Bip]Y(Carboxymethyl)[Orn][dL][Dab][Cha][Val(3-OH)]SC[Dab]-NH2; thioether N-14)
3,8.9,Cc1cccc(C[C@@H]2NC(=O)[C@H](CC(=O)O)NC(=O)[C@H](Cc3ccc(OCC(=O)O)cc3)NC(=O)[C@H](Cc3ccncc3)NC(=O)CSC[C@@H](C(=O)N[C@H](CC(N)=O)C(N)=O)NC(=O)[C@H](CO)NC(=O)[C@H](C(C)(C)O)NC(=O)[C@H](CC3CCCCC3)NC(=O)[C@H](CCN)NC(=O)[C@@H](CC(C)C)NC(=O)[C@H](CCCN)NC(=O)[C@H](Cc3ccc(O)cc3)NC(=O)[C@H](Cc3ccc(-c4ccccc4)cc3)NC(=O)[C@H](Cc3ccc(C(N)=O)cc3)NC2=O)c1 [Compound 2657] ({CH2CO}-[4Pal]Y(Carboxymethyl)D[Phe(3-Me)][Phe(4-CONH2)][Bip]Y[Orn][dL][Dab][Cha][Val(3-OH)]SC[dN]-NH2; thioether N-14)
4,6.7,CC(C)C[C@@H]1NC(=O)[C@H](Cc2c[nH]c3ccccc23)NC(=O)[C@H](CC(=O)O)NC(=O)[C@H](Cc2ccc(CCC(=O)O)cc2)NC(=O)[C@H](Cc2ccc(OCC(=O)O)cc2)NC(=O)CSC[C@@H](C(=O)NCC(N)=O)NC(=O)[C@H](CO)NC(=O)[C@H](C(C)C)NC(=O)[C@H](CC(C)C)NC(=O)[C@H](CCN)NC(=O)[C@@H](CC(C)C)NC(=O)[C@H](CCCN)NC(=O)[C@H](C(C)C)NC(=O)[C@H](Cc2ccc(-c3ccccc3)cc2)NC1=O [Compound 1256] ({CH2CO}-Y(Carboxymethyl)[Phe(4-CH2CH2COOH)]DWL[Bip]V[Orn][dL][Dab]LVSCG-NH2; thioether N-14)
5,7.6,CC(C)C[C@H]1NC(=O)[C@H](CCCN)NC(=O)[C@H](C(C)C)NC(=O)[C@H](Cc2ccc(-c3ccccc3)cc2)NC(=O)[C@H](C(C)C)NC(=O)[C@H](Cc2c[nH]c3ccccc23)NC(=O)[C@H](CC(=O)O)NC(=O)[C@H](Cc2ccc(C(=O)O)cc2)NC(=O)[C@H](Cc2ccc(OCC(=O)O)cc2)NC(=O)CSC[C@@H](C(=O)N[C@@H](C)C(N)=O)NC(=O)[C@H](CCCNC(=N)N)NC(=O)[C@H](C(C)C)NC(=O)[C@H](CC2CCCCC2)NC(=O)[C@H](CCN)NC1=O [Compound 1748] ({CH2CO}-Y(Carboxymethyl)[Phe(4-COOH)]DWV[Bip]V[Orn][dL][Dab][Cha]VRCA-NH2; thioether N-14)
6,7.9,CCCC[C@@H]1NC(=O)[C@H](CCN)NC(=O)[C@@H](CC(C)C)NC(=O)[C@H](CCCN)NC(=O)[C@H](C(C)C)NC(=O)[C@H](Cc2ccc(-c3ccccc3)cc2)NC(=O)[C@H](CC(C)C)NC(=O)[C@H](Cc2c[nH]c3ccccc23)NC(=O)[C@H](CC(=O)O)NC(=O)[C@H](Cc2ccc(OCC(=O)O)cc2)NC(=O)[C@H](Cc2ccncc2)NC(=O)CSC[C@@H](C(=O)NCC(N)=O)NC(=O)[C@H](CO)NC(=O)[C@H](C(C)C)NC1=O [Compound 1407] ({CH2CO}-[4Pal]Y(Carboxymethyl)DWL[Bip]V[Orn][dL][Dab][Nle]VSCG-NH2; thioether N-14)
7,7.7,CCCC[C@@H]1NC(=O)[C@H](CCN)NC(=O)[C@@H](CC(C)C)NC(=O)[C@H](CCCN)NC(=O)[C@H](C(C)C)NC(=O)[C@H](Cc2ccc(-c3ccccc3)cc2)NC(=O)[C@H](C(C)C)NC(=O)[C@H](Cc2cccc(C)c2)NC(=O)[C@H](CC(=O)O)NC(=O)[C@H](Cc2ccc(C(=O)O)cc2)NC(=O)[C@H](Cc2ccncc2)NC(=O)CSC[C@@H](C(=O)N[C@@H](C)C(N)=O)NC(=O)[C@H]([C@@H](C)O)NC(=O)[C@H](C(C)C)NC1=O [Compound 1193] ({CH2CO}-[4Pal][Phe(4-COOH)]D[Phe(3-Me)]V[Bip]V[Orn][dL][Dab][Nle]VTCA-NH2; thioether N-14)
